Laboratory results published in ChEMBL document CHEMBL1147392, “Antimicrobial compounds from Petalostemum purpureum” (1993).
Values after ≈ are worked out from the molar mass of the structure shown.

Legend:
Staphylococcus aureus = test: Antimicrobial activity against Staphylococcus aureus ATCC 6538 by twofold serial macrobroth dilution assay
Candida albicans = test: Antimicrobial activity against Candida albicans NIH B311 by twofold serial macrobroth dilution assay; format: functional
[1] = tested on: Mycobacterium intracellulare; test: Antimicrobial activity against Mycobacterium intracellular ATCC 23068 by twofold serial macrobroth dilution assay; format: functional
Cryptococcus neoformans = test: Antimicrobial activity against Cryptococcus neoformans ATCC 32264 by twofold serial macrobroth dilution assay; format: functional
Escherichia coli = test: Antimicrobial activity against Escherichia coli ATCC 10536 by twofold serial macrobroth dilution assay; format: functional
Bacillus subtilis = test: Antimicrobial activity against Bacillus subtilis ATCC 6633 by twofold serial macrobroth dilution assay; format: functional

| SMILES | MIC (Staphylococcus aureus) [µg/mL] | MIC (Candida albicans) [µg/mL] | MIC [1] [µg/mL] | MIC (Cryptococcus neoformans) [µg/mL] | MIC (Escherichia coli) [µg/mL] | MIC (Bacillus subtilis) [µg/mL] |
| --- | --- | --- | --- | --- | --- | --- |
| COc1cc(CC=C(C)C)c(-c2oc3c(CC=C(C)C)c(OC)cc(OC)c3c(=O)c2OC)c(CC=C(C)C)c1OC | 12.5 (≈ 21.7 µM) | 25 (≈ 43.3 µM) | 25 (≈ 43.3 µM) | – | – | – |
| COc1cc(OC)c2c(c1CC=C(C)C)O[C@H](c1c(CC=C(C)C)cc(OC)c(OC)c1CC=C(C)C)[C@@H](O)C2=O | 12.5 (≈ 22.1 µM) | 100 (≈ 177 µM) | 12.5 (≈ 22.1 µM) | – | – | – |
| COc1cc(CC=C(C)C)c([C@H]2Oc3c(CC=C(C)C)c(OC)cc(O)c3C(=O)[C@@H]2O)c(CC=C(C)C)c1O | – | – | 25 (≈ 46.6 µM) | – | – | – |
| C[C@@H]1[C@H](O)[C@@H](C)/C=C/C=C/C=C/C=C/C=C/C=C/C=C/[C@H](O[C@@H]2O[C@H](C)[C@@H](O)[C@H](N)[C@@H]2O)C[C@@H]2O[C@](O)(C[C@@H](O)C[C@@H](O)[C@H](O)CC[C@@H](O)C[C@@H](O)CC(=O)O[C@H]1C)C[C@H](O)[C@H]2C(=O)O [AMPHOTERICIN B] | – | 0.39 (≈ 0.422 µM) | – | 0.2 (≈ 0.216 µM) | – | – |
| CC(C)=CCc1cc(O)c(O)c(CC=C(C)C)c1[C@H]1Oc2c(CC=C(C)C)c(O)cc(O)c2C(=O)[C@@H]1O [PETALOSTEMUMOL] | 3.12 (≈ 6.13 µM) | 12.5 (≈ 24.6 µM) | 6.25 (≈ 12.3 µM) | 25 (≈ 49.2 µM) | 6.25 (≈ 12.3 µM) | 0.78 (≈ 1.53 µM) |
| CN[C@@H]1[C@H](O[C@H]2[C@H](O[C@H]3[C@H](O)[C@@H](O)[C@H](N=C(N)N)[C@@H](O)[C@@H]3N=C(N)N)O[C@@H](C)[C@]2(O)C=O)O[C@@H](CO)[C@H](O)[C@H]1O [STREPTOMYCIN] | 6.25 (≈ 10.7 µM) | – | 1.56 (≈ 2.68 µM) | – | 3.12 (≈ 5.36 µM) | 1.56 (≈ 2.68 µM) |
